According to doi:10.1101/2020.02.18.954917v1 (biorxiv, 2020):

How the values were obtained:
[1] = target: T1, Them1 StarD (Them1 START domain) (Homo sapiens, UniProt Q8WXI4); experiment: differential scanning fluorimetry, SYPRO orange; format: binding; conditions: 10 μM protein, 50 μM ligand, 2% ethanol
T1 sequence (Q8WXI4 339-594 isoform Q8WXI4-2): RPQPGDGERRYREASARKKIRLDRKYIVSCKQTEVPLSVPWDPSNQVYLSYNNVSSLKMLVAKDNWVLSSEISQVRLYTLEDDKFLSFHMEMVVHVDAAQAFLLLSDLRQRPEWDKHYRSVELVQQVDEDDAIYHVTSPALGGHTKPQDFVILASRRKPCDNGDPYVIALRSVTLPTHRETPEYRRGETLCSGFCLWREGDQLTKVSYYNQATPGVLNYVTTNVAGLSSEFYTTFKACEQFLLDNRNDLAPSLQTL

[2] = target: T1, Them1 StarD (Them1 START domain); experiment: microscale thermophoresis, RED-tris-NTA labelled His-tagged StarD; format: binding

Row | Compound | Tm decrease [1] | Kd [2]
1 | CCCCCCCC/C=C\CCCCCCCC(=O)OC[C@@H](O)COP(=O)([O-])OCC[N+](C)(C)C [18:1 LPC] | ~ 5 °C | 
2 | CCCCCCCCCCCCCC(=O)O [myristic acid] |  | 70.8 µM
3 | CCCCCCCCCCCCCCCC(=O)O [palmitic acid] |  | 45.9 µM
4 | CCCCCCCCCCCCCCCCCC(=O)O [stearic acid] |  | 9.5 µM
